Reference: the supplement of paper PMC12463676, “Small-molecule dissolution of stress granules by redox modulation benefits ALS models” (Nature Chemical Biology, 2025)

Columns and labels:
[1] = compound: NC(=O)CCCCC1CCSS1 [lipoamide]; experiment: thermal stability z-score vs DMSO; higher = more thermally stabilized by treatment; conditions: HeLa, lipoamide concentration 100 µM
Description: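 Cellular thermal proteome profiling in HeLa cells. Cells were treated with 100 µM lipoamide for 1 h, with or without 1 mM arsenate for a further 1 h, then heated to ten temperatures (37-66.3 °C), and soluble protein was quantified by TMT mass spectrometry relative to 0.1% DMSO controls. The thermal stability score (sum of log2 fold changes minus the abundance score) was transformed to a z-score; mean of n = 3 experiments.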

[2] = compound: O=[As]([O-])(O)O.[K+] [potassium arsenate]; experiment: as above; conditions: HeLa; arsenate concentration 1 mM
Description: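 Cellular thermal proteome profiling in HeLa cells treated with 1 mM arsenate for 1 h (DMSO pretreatment), heated to ten temperatures (37-66.3 °C). Soluble protein was quantified by TMT mass spectrometry relative to DMSO controls; the thermal stability score was transformed to a z-score; mean of n = 3 experiments.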

[3] = arsenate co-treatment: 1 mM arsenate 1 h
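Further: each temperature applied for 3 min, abundance score taken as mean log2 fold change at the two lowest temperatures, z-score obtained by mean subtraction and division by SD.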

UniProt Q96R06, sequence (Q96R06 whole entry): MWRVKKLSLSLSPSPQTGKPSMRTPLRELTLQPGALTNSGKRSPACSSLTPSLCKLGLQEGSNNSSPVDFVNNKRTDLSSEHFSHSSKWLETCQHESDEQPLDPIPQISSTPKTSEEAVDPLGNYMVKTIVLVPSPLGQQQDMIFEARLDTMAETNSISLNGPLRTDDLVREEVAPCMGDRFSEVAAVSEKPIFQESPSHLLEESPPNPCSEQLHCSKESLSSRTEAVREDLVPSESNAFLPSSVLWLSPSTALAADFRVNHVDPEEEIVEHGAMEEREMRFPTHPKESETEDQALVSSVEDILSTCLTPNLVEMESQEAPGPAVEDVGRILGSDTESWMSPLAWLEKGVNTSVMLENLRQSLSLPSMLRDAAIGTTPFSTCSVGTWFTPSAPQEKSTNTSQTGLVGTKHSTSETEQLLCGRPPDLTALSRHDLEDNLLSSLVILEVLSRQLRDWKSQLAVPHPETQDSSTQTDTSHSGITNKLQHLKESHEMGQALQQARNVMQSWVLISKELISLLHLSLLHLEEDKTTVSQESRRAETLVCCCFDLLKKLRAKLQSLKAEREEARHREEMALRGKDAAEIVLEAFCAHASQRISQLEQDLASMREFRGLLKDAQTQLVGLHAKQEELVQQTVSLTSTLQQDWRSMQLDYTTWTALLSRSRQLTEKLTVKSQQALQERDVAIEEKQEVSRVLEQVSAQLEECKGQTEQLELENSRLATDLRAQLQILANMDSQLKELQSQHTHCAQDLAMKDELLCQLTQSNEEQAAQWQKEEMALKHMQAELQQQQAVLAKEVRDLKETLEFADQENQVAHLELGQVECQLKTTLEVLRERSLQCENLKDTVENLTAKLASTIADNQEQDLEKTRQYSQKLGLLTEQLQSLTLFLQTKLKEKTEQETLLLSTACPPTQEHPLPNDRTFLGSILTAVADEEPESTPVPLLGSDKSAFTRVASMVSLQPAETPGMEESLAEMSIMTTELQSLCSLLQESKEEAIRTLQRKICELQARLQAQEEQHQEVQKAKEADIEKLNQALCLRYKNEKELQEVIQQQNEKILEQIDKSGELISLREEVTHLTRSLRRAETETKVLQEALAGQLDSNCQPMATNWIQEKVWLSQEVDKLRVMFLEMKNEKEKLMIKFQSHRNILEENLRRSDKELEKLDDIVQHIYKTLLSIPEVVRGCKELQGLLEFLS
UniProt P13797, sequence (P13797 whole entry): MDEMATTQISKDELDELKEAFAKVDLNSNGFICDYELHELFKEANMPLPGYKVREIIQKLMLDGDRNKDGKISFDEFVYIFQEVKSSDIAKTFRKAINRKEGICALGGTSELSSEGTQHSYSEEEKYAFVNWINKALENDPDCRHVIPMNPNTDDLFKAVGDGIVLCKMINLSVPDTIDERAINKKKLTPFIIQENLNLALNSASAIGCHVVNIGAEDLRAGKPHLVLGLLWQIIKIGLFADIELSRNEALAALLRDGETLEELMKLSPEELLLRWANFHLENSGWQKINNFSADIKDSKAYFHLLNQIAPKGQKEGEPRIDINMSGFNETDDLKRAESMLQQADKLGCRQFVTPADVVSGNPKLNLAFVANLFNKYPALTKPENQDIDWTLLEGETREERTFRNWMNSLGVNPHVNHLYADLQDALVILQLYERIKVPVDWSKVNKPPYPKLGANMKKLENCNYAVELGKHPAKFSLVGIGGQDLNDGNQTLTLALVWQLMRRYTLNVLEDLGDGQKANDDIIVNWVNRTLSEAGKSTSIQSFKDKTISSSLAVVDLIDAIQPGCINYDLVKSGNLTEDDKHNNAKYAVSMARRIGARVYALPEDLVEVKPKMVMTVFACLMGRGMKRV
UniProt Q96H79, sequence (Q96H79 whole entry): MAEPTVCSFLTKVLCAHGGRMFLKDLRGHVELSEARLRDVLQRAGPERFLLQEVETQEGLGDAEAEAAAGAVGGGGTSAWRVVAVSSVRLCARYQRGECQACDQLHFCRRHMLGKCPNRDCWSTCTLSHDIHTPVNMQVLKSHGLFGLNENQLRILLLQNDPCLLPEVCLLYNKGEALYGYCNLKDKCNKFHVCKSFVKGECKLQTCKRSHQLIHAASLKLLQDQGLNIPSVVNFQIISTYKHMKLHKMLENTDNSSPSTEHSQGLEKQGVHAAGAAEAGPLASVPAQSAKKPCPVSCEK
UniProt Q9NXD2, sequence (Q9NXD2 whole entry): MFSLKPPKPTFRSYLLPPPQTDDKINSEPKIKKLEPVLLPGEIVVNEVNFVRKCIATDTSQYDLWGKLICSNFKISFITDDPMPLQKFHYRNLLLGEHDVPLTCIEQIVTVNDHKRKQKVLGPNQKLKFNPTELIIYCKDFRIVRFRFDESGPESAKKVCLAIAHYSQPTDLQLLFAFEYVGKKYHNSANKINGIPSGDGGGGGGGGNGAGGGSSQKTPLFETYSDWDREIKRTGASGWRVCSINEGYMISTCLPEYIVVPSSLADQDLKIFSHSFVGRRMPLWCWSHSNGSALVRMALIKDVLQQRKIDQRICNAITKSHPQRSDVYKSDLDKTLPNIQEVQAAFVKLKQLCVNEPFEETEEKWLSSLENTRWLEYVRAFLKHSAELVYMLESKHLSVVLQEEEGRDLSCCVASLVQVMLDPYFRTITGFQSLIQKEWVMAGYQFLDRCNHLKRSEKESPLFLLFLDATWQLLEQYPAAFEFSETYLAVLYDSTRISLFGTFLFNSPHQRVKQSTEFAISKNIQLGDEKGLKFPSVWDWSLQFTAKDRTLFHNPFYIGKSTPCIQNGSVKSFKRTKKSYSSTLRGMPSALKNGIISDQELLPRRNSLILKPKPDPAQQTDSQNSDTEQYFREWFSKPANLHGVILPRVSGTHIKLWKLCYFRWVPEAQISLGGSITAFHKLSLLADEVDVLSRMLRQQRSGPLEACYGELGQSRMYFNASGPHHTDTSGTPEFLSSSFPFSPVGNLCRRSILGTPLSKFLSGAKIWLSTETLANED
UniProt Q9Y5N6, sequence (Q9Y5N6 whole entry): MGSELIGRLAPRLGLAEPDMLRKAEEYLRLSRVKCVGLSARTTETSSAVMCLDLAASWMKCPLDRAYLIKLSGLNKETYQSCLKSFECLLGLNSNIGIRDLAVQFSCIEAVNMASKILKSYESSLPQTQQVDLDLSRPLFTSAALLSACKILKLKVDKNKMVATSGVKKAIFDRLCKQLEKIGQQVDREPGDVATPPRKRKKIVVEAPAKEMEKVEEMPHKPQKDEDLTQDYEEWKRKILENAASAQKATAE
UniProt O60888, sequence (O60888 whole entry): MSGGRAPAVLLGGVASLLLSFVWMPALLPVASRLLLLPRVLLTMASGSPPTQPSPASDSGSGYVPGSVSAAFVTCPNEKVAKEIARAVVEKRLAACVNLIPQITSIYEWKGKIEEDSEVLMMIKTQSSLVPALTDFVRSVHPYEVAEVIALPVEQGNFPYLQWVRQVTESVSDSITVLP
UniProt Q92688, sequence (Q92688 whole entry): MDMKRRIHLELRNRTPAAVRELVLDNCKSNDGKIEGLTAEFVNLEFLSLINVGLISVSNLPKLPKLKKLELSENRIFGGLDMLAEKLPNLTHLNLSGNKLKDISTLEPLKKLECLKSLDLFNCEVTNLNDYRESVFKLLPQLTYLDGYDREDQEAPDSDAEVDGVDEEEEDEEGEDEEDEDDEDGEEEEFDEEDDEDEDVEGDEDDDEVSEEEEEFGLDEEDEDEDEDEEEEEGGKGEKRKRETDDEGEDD
UniProt Q14738, sequence (Q14738 whole entry): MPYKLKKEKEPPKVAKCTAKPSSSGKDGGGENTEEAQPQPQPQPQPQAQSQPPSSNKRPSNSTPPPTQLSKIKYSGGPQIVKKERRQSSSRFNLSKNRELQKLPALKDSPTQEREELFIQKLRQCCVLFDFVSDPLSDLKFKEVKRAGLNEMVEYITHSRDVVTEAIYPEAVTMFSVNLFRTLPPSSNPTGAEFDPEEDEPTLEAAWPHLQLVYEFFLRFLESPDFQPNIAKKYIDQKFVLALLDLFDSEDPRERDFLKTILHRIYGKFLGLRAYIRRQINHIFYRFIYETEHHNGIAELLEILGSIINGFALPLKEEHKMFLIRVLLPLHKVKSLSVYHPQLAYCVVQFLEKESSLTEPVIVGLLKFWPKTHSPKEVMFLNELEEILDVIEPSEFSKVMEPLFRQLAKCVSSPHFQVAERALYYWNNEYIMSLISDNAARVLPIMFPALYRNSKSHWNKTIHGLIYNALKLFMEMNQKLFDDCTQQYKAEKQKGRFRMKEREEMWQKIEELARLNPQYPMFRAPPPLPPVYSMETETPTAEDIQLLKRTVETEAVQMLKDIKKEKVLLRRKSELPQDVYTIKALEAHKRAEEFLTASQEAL
UniProt Q9UBE0, sequence (Q9UBE0 whole entry): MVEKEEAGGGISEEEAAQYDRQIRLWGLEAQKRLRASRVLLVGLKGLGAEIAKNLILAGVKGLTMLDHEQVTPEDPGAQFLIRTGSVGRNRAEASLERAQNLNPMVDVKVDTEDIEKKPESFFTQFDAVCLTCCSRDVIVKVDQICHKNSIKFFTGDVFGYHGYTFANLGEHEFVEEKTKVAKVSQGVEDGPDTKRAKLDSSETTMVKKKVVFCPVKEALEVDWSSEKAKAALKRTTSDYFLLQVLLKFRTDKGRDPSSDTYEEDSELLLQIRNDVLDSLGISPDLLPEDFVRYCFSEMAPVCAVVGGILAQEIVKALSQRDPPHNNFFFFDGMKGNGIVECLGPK
UniProt Q9UQN3, sequence (Q9UQN3 whole entry): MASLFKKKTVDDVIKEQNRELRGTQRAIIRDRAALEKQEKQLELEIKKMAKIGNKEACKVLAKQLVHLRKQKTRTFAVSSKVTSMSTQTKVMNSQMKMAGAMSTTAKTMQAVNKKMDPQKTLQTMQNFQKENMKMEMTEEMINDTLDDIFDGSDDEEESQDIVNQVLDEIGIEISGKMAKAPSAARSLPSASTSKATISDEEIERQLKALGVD
UniProt Q9Y5R8, sequence (Q9Y5R8 whole entry): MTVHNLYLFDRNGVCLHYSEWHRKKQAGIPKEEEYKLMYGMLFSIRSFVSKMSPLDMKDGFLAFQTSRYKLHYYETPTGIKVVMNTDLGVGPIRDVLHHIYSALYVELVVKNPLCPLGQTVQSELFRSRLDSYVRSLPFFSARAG

Target	thermal stability z-score [1, 3]	thermal stability z-score ([1]; arsenate co-treatment: none)	thermal stability z-score [2]
SPAG5 (UniProt Q96R06)	-0.791	-0.122	-0.162
GNPAT (UniProt O15228)	0.161	0.296	0.518
MTMR10 (UniProt Q9NXD2)	-0.108	0.0107	-0.188
EIF3E (UniProt P60228)	-0.192	0.126	-0.113
DDX31 (UniProt Q9H8H2)	0.19	0.0101	-0.348
COMMD9 (UniProt Q9P000)	-0.221	-0.146	-0.0631
ERO1A (UniProt Q96HE7)	-0.923	0.193	0.59
DCTN1 (UniProt Q14203)	-0.27	-0.171	0.369
ZC3HAV1L (UniProt Q96H79)	0.323	-0.218	0.0902
TLK2 (UniProt Q86UE8)	-0.838	0.0336	0.502
ORC6 (UniProt Q9Y5N6)	-0.246	-0.0524	-1.11
NME1|NME2	0.455	0.432	0.487
RAB27B (UniProt O00194)	0.463	0.0912	0.58
CUTA (UniProt O60888)	1.1	0.709	-0.0462
ANP32B (UniProt Q92688)	-0.711	-0.129	-0.513
LRRC40 (UniProt Q9H9A6)	-0.119	0.108	0.245
THRAP3 (UniProt Q9Y2W1)	1.84	0.438	-0.985
SLC2A3 (UniProt P11169)	0.481	0.126	-0.293
CLSPN (UniProt Q9HAW4)	-0.352	0.214	1.12
MRPL43 (UniProt Q8N983)	-0.191	0.245	0.166
PRKDC (UniProt P78527)	0.373	0.169	-0.559
CAST (UniProt P20810)	0.525	0.428	0.122
EIF4E (UniProt P06730)	0.236	-0.135	0.461
TRAPPC1 (UniProt Q9Y5R8)	0.425	0.512	0.484
C18ORF8 (UniProt Q96DM3)	0.827	0.41	-0.638
FLNA (UniProt P21333)	0.22	0.544	-0.4
HAUS3 (UniProt Q68CZ6)	-0.112	-0.176	-0.102
PLS3 (UniProt P13797)	0.368	0.603	-0.117

Target	thermal stability z-score [1, 3]	thermal stability z-score ([1]; arsenate co-treatment: none)	thermal stability z-score [2]
GSTT2|GSTT2B|EM	0.517	0.277	-0.23
SNRPB|SNRPN	0.508	0.162	0.578
PDSS2 (UniProt Q86YH6)	0.66	0.484	-0.169
VPS35 (UniProt Q96QK1)	0.247	0.378	-0.541
NMNAT1 (UniProt Q9HAN9)	1.03	1.15	1.87
UBA1 (UniProt P22314)	-0.526	0.213	-0.439
GLUD1 (UniProt P00367)	-1.37	-0.412	-0.578
SAMD9 (UniProt Q5K651)	-0.0476	-0.0624	-0.13
DOCK7 (UniProt Q96N67)	-0.23	0.0599	0.962
WDSUB1 (UniProt Q8N9V3)	0.698	0.878	0.867
CHMP2B (UniProt Q9UQN3)	0.562	0.348	0.573
SCP2 (UniProt P22307)	0.374	0.0992	-0.257
SAE1 (UniProt Q9UBE0)	-0.694	-0.826	-0.458
PPP2R5D (UniProt Q14738)	-0.378	-0.239	0.228
UBXN8 (UniProt O00124)	-1.43	-0.528	-0.0404
HPS3 (UniProt Q969F9)	-0.021	0.206	-0.255
SEL1L (UniProt Q9UBV2)	-2.16	-1.76	0.614
HMGN5 (UniProt P82970)	-0.141	-0.134	-0.172
TMEM237 (UniProt Q96Q45)	0.0486	0.457	-1.23
MRPL10 (UniProt Q7Z7H8)	0.127	0.224	0.0461
RTN3 (UniProt O95197)	0.112	0.0244	0.525
ECE2 (UniProt P0DPD6)	-0.0621	0.0487	-0.104
CMTR2 (UniProt Q8IYT2)	0.107	0.13	-0.0808
ZNF638 (UniProt Q14966)	0.83	0.27	-0.032
STAM (UniProt Q92783)	-0.258	0.0211	-0.0683
ZNF281 (UniProt Q9Y2X9)	-0.165	-0.214	0.133
DNAJC16 (UniProt Q9Y2G8)	-0.913	-2.01	0.00733
